In brackets after ≈: the same amount, converted by molar mass. Non-standard residues stand in square brackets, D forms with d. Residues, ends and D or L forms follow the SMILES beside them. His(τ-Bzl) = N[C@@H](Cc1cn(Cc2ccccc2)cn1)C(=O)O; Phe(4-Me) = Cc1ccc(C[C@H](N)C(=O)O)cc1; 1Nal = N[C@@H](Cc1cccc2ccccc12)C(=O)O; Cha = N[C@@H](CC1CCCCC1)C(=O)O; Orn = NCCC[C@H](N)C(=O)O; Dab = NCC[C@H](N)C(=O)O
Assays:
Escherichia coli [1] = assay: Anti-bacterial activity against Escherichia coli ATCC 35218 by CLSI method; type: functional; conditions: for MIC: Escherichia coli, ATCC 35218
Nakaseomyces glabratus = assay: Antifungal activity against Candida glabrata ATCC 90030 after 18 to 24 hrs by Alamar blue assay; type: functional
Staphylococcus aureus [2] = assay: Anti-bacterial activity against Staphylococcus aureus ATCC 29213 by CLSI method; type: functional; conditions: Staphylococcus aureus, ATCC 29213
Pseudomonas aeruginosa = assay: Anti-bacterial activity against Pseudomonas aeruginosa ATCC 27853 by CLSI method; type: functional
Candida albicans [3] = assay: Antifungal activity against Candida albicans ATCC 90028 after 18 to 24 hrs by Alamar blue assay; type: functional
[4] = tested on: Mycobacterium intracellulare; assay: Anti-bacterial activity against Mycobacterium intracellulare ATCC 23068 after 68 to 72 hrs by Alamar blue assay; type: functional, cell-based; conditions: for MIC: Mycobacterium intracellulare, ATCC 23068
[5] = tested on: Mycobacterium intracellulare; assay: Bactericidal activity against Mycobacterium intracellulare ATCC 23068 after 68 to 72 hrs by Alamar blue assay; type: functional
Vero = assay: Cytotoxicity against African green monkey Vero cells up to 10 ug/ml after 48 hrs by neutral red dye based assay; type: cell-based; conditions: chlorocebus sabaeus
Pichia kudriavzevii [6] = assay: Antifungal activity against Candida krusei ATCC 6258 after 18 to 24 hrs by Alamar blue assay; type: functional; conditions: Pichia kudriavzevii, ATCC 6258
Escherichia coli [7] = assay: Bactericidal activity against Escherichia coli ATCC 35218 by CLSI method; type: functional
Aspergillus fumigatus = assay: Antifungal activity against Aspergillus fumigatus ATCC 90906 after 68 to 72 hrs by Alamar blue assay; type: functional
Pichia kudriavzevii [8] = assay: Fungicidal activity against Candida krusei ATCC 6258 after 18 to 24 hrs by Alamar blue assay; type: functional
Staphylococcus aureus [9] = assay: Anti-bacterial activity against methicillin-resistant Staphylococcus aureus ATCC 33591 by CLSI method; type: functional; conditions: Staphylococcus aureus, ATCC 33591
Cryptococcus neoformans [10] = assay: Antifungal activity against Cryptococcus neoformans ATCC 90113 after 68 to 72 hrs by Alamar blue assay; type: functional
Staphylococcus aureus [11] = assay: Bactericidal activity against Staphylococcus aureus ATCC 29213 by CLSI method; type: functional
Staphylococcus aureus [12] = assay: Bactericidal activity against methicillin-resistant Staphylococcus aureus ATCC 33591 by CLSI method; type: functional
Candida albicans [13] = assay: Fungicidal activity against Candida albicans ATCC 90028 after 18 to 24 hrs by Alamar blue assay; type: functional
Cryptococcus neoformans [14] = assay: Fungicidal activity against Cryptococcus neoformans ATCC 90113 after 68 to 72 hrs by Alamar blue assay; type: functional

SMILES	MIC (Escherichia coli [1]) [µg/mL]	IC50 (Nakaseomyces glabratus)	MIC (Staphylococcus aureus [2]) [µg/mL]	IC50 (Pseudomonas aeruginosa)	IC50 (Candida albicans [3])	MIC [4] [µg/mL]	MBC [5] [µg/mL]	Activity (Vero)	MIC (Pichia kudriavzevii [6]) [µg/mL]	MBC (Escherichia coli [7]) [µg/mL]	IC50 (Aspergillus fumigatus)	MFC (Pichia kudriavzevii [8]) [µg/mL]	MIC (Staphylococcus aureus [9]) [µg/mL]	MIC (Cryptococcus neoformans [10]) [µg/mL]	MBC (Staphylococcus aureus [11]) [µg/mL]	MBC (Staphylococcus aureus [12]) [µg/mL]	MFC (Cryptococcus neoformans [14]) [µg/mL]	IC50 [4]	IC50 (Escherichia coli [1])	further results
Cc1ccc(C[C@H](NC(=O)[C@@H](Cc2ccccc2)NC(=O)[C@@H](Cc2c[nH]c3ccccc23)NC(=O)[C@@H](N)CCCCN)C(=O)N[C@H](Cc2ccccc2)C(=O)N[C@@H](Cc2cn(Cc3ccccc3)cn2)C(N)=O)cc1 (H-K[dW][dF][Phe(4-Me)][dF][His(τ-Bzl)]-NH2)	20 (≈ 19.7 µM)	Not Active	20 (≈ 19.7 µM)	Not Active	Not Active	20 (≈ 19.7 µM)	20 (≈ 19.7 µM)	Non-Toxic	20 (≈ 19.7 µM)	20 (≈ 19.7 µM)	Not Active	20 (≈ 19.7 µM)	20 (≈ 19.7 µM)	2.5 (≈ 2.46 µM)	20 (≈ 19.7 µM)					
Cc1ccc(C[C@H](NC(=O)[C@@H](Cc2ccccc2)NC(=O)[C@@H](Cc2c[nH]c3ccccc23)NC(=O)[C@@H](N)CCCNC(=N)N)C(=O)N[C@H](Cc2ccccc2)C(=O)N[C@@H](Cc2cn(Cc3ccccc3)cn2)C(N)=O)cc1 (H-R[dW][dF][Phe(4-Me)][dF][His(τ-Bzl)]-NH2)	10 (≈ 9.59 µM)	Not Active		Not Active			10 (≈ 9.59 µM)	Non-Toxic	20 (≈ 19.2 µM)	20 (≈ 19.2 µM)	Not Active		20 (≈ 19.2 µM)	2.5 (≈ 2.4 µM)	20 (≈ 19.2 µM)	20 (≈ 19.2 µM)	2.5 (≈ 2.4 µM)			MFC (Candida albicans [13]): 20 µg/mL (≈ 19.2 µM); MIC (Candida albicans [3]; Candida albicans, ATCC 90028): 20 µg/mL (≈ 19.2 µM)
Cc1ccc(C[C@H](NC(=O)[C@@H](Cc2ccccc2)NC(=O)[C@@H](Cc2c[nH]c3ccccc23)NC(=O)[C@@H](N)CCN)C(=O)N[C@H](Cc2ccccc2)C(=O)N[C@@H](Cc2cn(Cc3ccccc3)cn2)C(N)=O)cc1 (H-[Dab][dW][dF][Phe(4-Me)][dF][His(τ-Bzl)]-NH2)			20 (≈ 20.3 µM)												20 (≈ 20.3 µM)	20 (≈ 20.3 µM)	1.25 (≈ 1.27 µM)			
CC[C@H](C)[C@H](NC(=O)[C@H](CC1CCCCC1)NC(=O)[C@H](CC1CCCCC1)NC(=O)[C@@H](N)CCCN)C(=O)N[C@H](Cc1ccccc1)C(=O)N[C@@H](Cc1cn(Cc2ccccc2)cn1)C(N)=O (H-[Orn][Cha][Cha]I[dF][His(τ-Bzl)]-NH2)	20 (≈ 21.6 µM)	Not Active		Not Active	Not Active			Non-Toxic		20 (≈ 21.6 µM)	Not Active	20 (≈ 21.6 µM)						Not Active		
CC[C@H](C)[C@H](NC(=O)[C@H](CC1CCCCC1)NC(=O)[C@@H](Cc1c[nH]c2ccccc12)NC(=O)[C@@H](N)CCCN)C(=O)N[C@@H](Cc1cccc2ccccc12)C(=O)N[C@@H](Cc1cn(Cc2ccccc2)cn1)C(N)=O (H-[Orn][dW][Cha]I[1Nal][His(τ-Bzl)]-NH2)		Not Active	20 (≈ 19.8 µM)	Not Active	Not Active			Non-Toxic	10 (≈ 9.92 µM)		Not Active			1.25 (≈ 1.24 µM)	20 (≈ 19.8 µM)	10 (≈ 9.92 µM)		Not Active	Not Active	
CC(C)C[C@H](NC(=O)[C@H](CC1CCCCC1)NC(=O)[C@@H](Cc1c[nH]c2ccccc12)NC(=O)[C@@H](N)CCCN)C(=O)N[C@H](Cc1ccccc1)C(=O)N[C@@H](Cc1cn(Cc2ccccc2)cn1)C(N)=O (H-[Orn][dW][Cha]L[dF][His(τ-Bzl)]-NH2)		Not Active		Not Active	Not Active	20 (≈ 20.9 µM)	20 (≈ 20.9 µM)	Non-Toxic	20 (≈ 20.9 µM)		Not Active	20 (≈ 20.9 µM)		5 (≈ 5.22 µM)	20 (≈ 20.9 µM)				Not Active	

Source: ChEMBL document CHEMBL4024712, “Synthesis, stability and mechanistic studies of potent anticryptococcal hexapeptides” (Eur J Med Chem, 2017)
